Results from patent US20060281791A1, “Methods of increasing proliferation of adult mammalian cardiomyocytes through p38 map kinase inhibition” (CHILDREN'S MEDICAL CENTER CORPORATION, priority 2005, published 2006).

System: myocardial infarction in adult rats
Test: Fractional shortening (echocardiography) after myocardial infarction
Format: in vivo, rat
Experimental: The p38 inhibitors were tested for in vivo effect following myocardial infarct. For the evaluation of left ventricular function, transthoracic echocardiogram can be performed on the rats after myocardial infarction 1 day or 14 days right. Rats can be anesthetized with 4-5% isoflurane in an induction chamber. The chest can be shaved, and the rats can be placed in dorsal decubitus position and intubated for continuous ventilation. 1-2% isoflurane can be continuously supplied via a mask. 3 electrodes can be adhered to their paws to record the electrocardiographic tracing simultaneously with the cardiac image identifying the phase of a cardiac cycle.
Echocardiograms can be performed with a commercially available echocardiography system equipped with 7.5 MHz phased-array transducer (Philips-Hewlett-Packard). The transducer can be positioned on the left anterior side of the chest. Longitudinal images of the heart can be obtained, including the left ventricle, atrium, the mitral valve and the aorta, followed by the cross-sectional images from the plane of the base to the left ventricular apical region. M-mode tracings can be obtained at the level below the tip of the mitral valve leaflets at the level of the papillary muscles. Fractional shorting (FS) can be calculated as a measure of systolic function, according to the M-mode tracing from the cross-sectional view: maximal LV end-diastolic diameter (at the time of maximal cavity dimension), minimal LV end-systolic diameter (at the time of maximum anterior motion of the posterior wall), FS (%)={(LVEDD−LVESD)/LVEDD}×100.
To determine whether p38 inhibition/FGF1 stimulation can induce cardiomyocyte proliferation in vivo and whether it has a positive effect on cardiac function after cardiac injury we created myocardial infarctions (MI) in adult rats (250 g) by coronary artery ligation. The p38 inhibitor SB203580 HCl or its vehicle, saline, were injected intraperitoneal every three days for the first month of the study. FGF1 or its carrier BSA was injected mixed with self-assembling peptides once into the infarct border zone immediately after coronary artery ligation. We injecting a total of 80 μl of 400 ng/ml FGF1, given at 3 different injection sites, into 400 mg of infarcted myocardium estimated to deliver a FGF 1 concentration to the cardiomyocytes of approximately 50 to 100 ng/ml. Animals were analyzed 24 hours, 2 weeks, and 3 month after surgery. We performed two blinded and randomized studies using 62 rats for the 2 week and 61 rats for the 3 month experiment, with at least 10 animals in each experimental group. Animals were treated with saline plus BSA (control), SB203580 HCl plus BSA (p38i), saline plus FGF1 (FGF1), or SB203580 HCl plus FGF1 (p38i/FGF1).
Animal experiments were performed in accordance with guidelines of Children's Hospital in Boston and were approved by the Harvard Medical School Standing Committee on Animals. Myocardial infarction (MI) was produced in ˜250 gm male Sprague-Dawley rats (Charles River and Harlan) as described previously (Hsieh et al., 2006). Briefly, rats were anesthetized by pentobarbital and, following tracheal intubation, the hearts were exposed via left thoracotomy. The left coronary artery was identified after pericardiotomy and was ligated by suturing with 6-0 prolene at the location ˜3mm below the left atrial appendix. For the sham operation, suturing was performed without ligation. […]

## FGF1: growth factor FGF1 (R&D Systems)
3 month after infarction
  improvement of fractional shortening: maintained
24 hours after MI
  left ventricular fractional shortening: significantly improved
Day 14 after infarction
  improvement of fractional shortening: maintained
